Patent publication US8299020B2, “Antimicrobial peptides and methods of their use” (The Ohio State University Research Foundation, priority 2006, dated 2012)
Like-named read-outs stand apart in the source and are kept apart here.

Legend:
solubility in water = type: physicochemical; settings: neutral water
gram-negative bacteria [1] = test: bioassay of activity against gram-negative bacteria; type: cell-based
Method: Antimicrobial activity determination. A qualitative and quantitative bioassay for antimicrobial potency was done using the spot-on-lawn method. An indicator lawn was prepared by pouring 10 ml soft agar (seeded with 200 μl overnight indicator culture) onto tryptose agar as a basal medium, in a petri dish. Escherichia coli K-12 and Lactobacillus plantarum ATCC 8014 were generally used as the gram-negative and gram-positive sensitive indicators, respectively, but other bacteria were tested to determine the OSY-DF antimicrobial spectrum (Table 1). For qualitative tests, aliquots (10 μl) of cell-free culture supernatant (pH 6.5) were spotted on indicator lawns, and the plates were incubated overnight for inhibition area observation. A clear inhibition area of ≧3 mm in diameter was recorded as positive. For the quantitative measurements, the cell-free culture supernatant was twofold serially diluted and dilutions were spotted onto the indicator lawn as just described. Antimicrobial activity was expressed in AU/ml; these values are the reciprocal of the highest dilution displaying a clear zone of inhibition that corresponds to 1 ml of the nondiluted supernatant.
Separation and purification by HPLC of the OSY-DF peptide. […] Elution was monitored at a wavelength of 220 nm, and fractions were collected manually for the antimicrobial activity bioassay. […]

gram-negative bacteria [2] = settings: background statement; cited from earlier work
Pseudomonas aeruginosa = settings: background statement; cited from earlier work
Acinetobacter baumannii = settings: background statement; cited from earlier work

| Compound | solubility in water (solubility in water) | solubility in water (solubility in water; listed as OSY-DF peptide) | activity against gram-negative bacteria (gram-negative bacteria [1]) | activity against gram-negative bacteria (gram-negative bacteria [2]) | activity against Pseudomonas aeruginosa (Pseudomonas aeruginosa) | activity against Acinetobacter baumannii (Acinetobacter baumannii) |
| --- | --- | --- | --- | --- | --- | --- |
| C=C1NC(=O)C2CSC(C)C(NC(=O)C3CSC(C)C4NC(=O)[C@H](CC(C)C)NC(=O)C(NC(=O)[C@H](CCCCN)NC(=O)C5CSCC(NC(=O)[C@@H](NC(=O)[C@H](CCCCN)NC(=O)[C@@H](NC(=O)/C(=C/C)NC(=O)/C(=C/C)NC(=O)[C@H](CCCCN)NC(=O)[C@@H](NC(=O)[C@@H](NC(=O)C(=C)NC(=O)[C@H](C)NC(C)=O)[C@@H](C)CC)[C@@H](C)CC)[C@@H](C)CC)C(C)C)C(=O)N[C@@H](CCCCN)C(=O)N[C@@H](C)C(=O)N[C@@H](C(C)C)C(=O)N5)C(C)SCC(NC4=O)C(=O)N[C@@H]([C@@H](C)CC)C(=O)N3)C(=O)NCC(=O)NC(CSCC(C(=O)N[C@@H](CCCCN)C(=O)O)NC(=O)[C@H](CC(N)=O)NC1=O)C(=O)N2 (stereo partly drawn) [Paenibacillin, (CH3CO-^1A)-Dha-I-I-K-Dhb-Dhb-I-K-V-A-K-A-V-A-K-Abu-L-Abu-A-I-A-Abu-G-A-A-Dha-N-A-K^30] | easy to dissolve | readily soluble |  |  |  |  |
| polymyxin E1 |  |  | anti-gram-negative activity | specifically active | active | active |
